Assay results taken from patent publication US20190307754A1, “PDE9 INHIBITORS FOR TREATMENT OF PERIPHERAL DISEASES” (IMARA, INC., priority 2016, published 2019).
Several values for one entry are separate records, joined by “and”; a condition that tells them apart may be missing. Identical values can stand only once. Like-named read-outs stand apart in the source and are kept apart here.

How the values were obtained:
[1] = test system: TNF-α activated human endothelial cells; experiment: Micro-channel PMN adhesion assay under flow (FIG. 9); format: cell-based
Description: In this study, the effects of Compound P3.1 on PMN adhesion to TNF-α activated human endothelial cell monolayers under flow conditions are investigated. It has been validated in vitro dynamic assay mimics neutrophil recruitment to endothelial cell monolayers under inflammatory conditions (TNF-α activation). In this assay, both control and sickle PMNs adhere to endothelial cells but to different degrees, reflecting in vivo conditions. The human dermal microvascular endothelial cell line HMEC-1 is used in this approach. The potential inhibitory effect of Compound P3.1 is tested in parallel and compared with the effect of HU and other PDE9 inhibitors.
In a first step, the effects of 1 uM Compound P3.1 and 10 uM HU were tested by incubating blood samples from healthy volunteers (n=3-6) (i.e., donors or donor cells) with these molecules.
Adhesion of PMNs from healthy volunteers was assessed under flow conditions, mimicking blood flow, in micro channels (Venaflux, Cellix, Ireland) coated with endothelial cell monolayers cultivated under inflammatory conditions. The adhesion assay was performed with whole fresh blood, previously incubated or not with Compound P3.1, to be closer to the physiological condition of circulation in a person, and to study the interaction between the different blood cells with PMNs.

[2] = Chromosome aberration study; format: cell-based
Description: (§1) The genotoxicity evaluation of Compound P3.1 consisted of a bacterial reverse mutation assay, a chromosome aberration study, and a in vivo rat micronucleus study. Compound P3.1 was negative in all 3 assays.

[3] = Stability study in purified water; format: physicochemical; details: approximately 40 mg/mL in purified water, refrigerated and ambient, 8 days
Protocol: In another stability study, Compound P3.1 was dissolved at approximately 40 mg/mL of purified water, and evaluated for purity over a period of 8 days. Samples were stored at both refrigerated and ambient conditions, and tested at T=0, Day 2, and Day 8.

CYP1A2 = experiment: CYP induction in human hepatocytes, CYP1A2; format: in vitro ADME
rat [4] = experiment: In vivo rat micronucleus study
Description: as §1

MDR1 (P-gp) = target: T1, MDR1 (P-gp) (Homo sapiens, UniProt P08183); experiment: Bi-directional permeability across MDCK-MDR1 cell monolayer; format: in vitro ADME; details: human
T1 construct: expressed in transfected cells; host or cells: MDCK-MDR1 cells
T1 sequence (P08183 whole entry): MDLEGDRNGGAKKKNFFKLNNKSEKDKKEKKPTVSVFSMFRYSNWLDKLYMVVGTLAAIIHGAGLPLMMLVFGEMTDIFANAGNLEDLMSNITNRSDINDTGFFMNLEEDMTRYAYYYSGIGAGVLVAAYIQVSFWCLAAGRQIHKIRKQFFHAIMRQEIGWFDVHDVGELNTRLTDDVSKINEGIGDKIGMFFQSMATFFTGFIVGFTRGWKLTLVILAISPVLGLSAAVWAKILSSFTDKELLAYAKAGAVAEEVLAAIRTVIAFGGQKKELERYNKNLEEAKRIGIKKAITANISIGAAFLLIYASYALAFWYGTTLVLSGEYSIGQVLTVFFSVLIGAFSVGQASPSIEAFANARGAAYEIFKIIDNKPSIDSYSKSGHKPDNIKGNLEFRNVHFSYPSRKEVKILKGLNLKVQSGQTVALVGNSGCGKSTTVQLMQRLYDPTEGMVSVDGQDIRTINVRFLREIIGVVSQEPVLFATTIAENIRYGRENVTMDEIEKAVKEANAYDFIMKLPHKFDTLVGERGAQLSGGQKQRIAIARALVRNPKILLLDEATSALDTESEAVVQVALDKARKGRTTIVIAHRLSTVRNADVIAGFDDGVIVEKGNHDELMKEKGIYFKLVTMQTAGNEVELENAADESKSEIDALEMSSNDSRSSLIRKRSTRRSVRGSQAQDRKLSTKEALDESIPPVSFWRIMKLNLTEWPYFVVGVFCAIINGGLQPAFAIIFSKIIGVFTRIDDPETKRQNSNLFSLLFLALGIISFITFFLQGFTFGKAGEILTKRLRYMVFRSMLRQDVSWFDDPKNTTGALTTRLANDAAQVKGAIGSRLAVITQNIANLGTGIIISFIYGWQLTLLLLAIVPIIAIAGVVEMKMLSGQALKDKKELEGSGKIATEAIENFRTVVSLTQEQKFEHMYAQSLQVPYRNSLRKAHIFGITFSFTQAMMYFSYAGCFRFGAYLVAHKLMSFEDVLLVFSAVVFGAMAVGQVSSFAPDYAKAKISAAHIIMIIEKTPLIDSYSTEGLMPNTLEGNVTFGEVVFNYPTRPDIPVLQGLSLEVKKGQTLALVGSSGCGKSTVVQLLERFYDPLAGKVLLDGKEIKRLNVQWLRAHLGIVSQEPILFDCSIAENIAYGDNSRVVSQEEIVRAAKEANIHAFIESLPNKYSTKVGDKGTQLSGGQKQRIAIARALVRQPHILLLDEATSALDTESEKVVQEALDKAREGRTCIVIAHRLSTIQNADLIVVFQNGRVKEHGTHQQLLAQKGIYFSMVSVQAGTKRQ

[5] = Blood Brain Barrier penetration (brain-to-plasma distribution); format: in vivo; details: male CD mice, 10 mg/kg subcutaneous
Protocol: Male CD mice (20-24 g) were housed pair-wise with free access to food and water for an acclimatization period of 3-7 days before initiation of experiments. Prior to dosing the animals were fasted overnight. During testing, mice were kept in individual cages. The brain-to-plasma distribution was assessed 30 minutes and 2 hours after subcutaneous administration of the test compound at a dose of 10 mg/kg (n=3 at each time point). The dose volume was 10 ml/kg using appropriate vehicle to solubilize each test compound. At the time of sampling, animals were anesthetized with isoflurane and a systemic blood sample collected by cardiac puncture into vacutainers containing sodium heparin as anti-coagulant. The blood was centrifuged at 3500 rpm for 10 minutes at 4° C. to obtain plasma. Following decapitation, brains were dissected out and transferred to pre-weighed vessels followed by tissue weights determination. Plasma and brains were stored at −80° C. until quantitative bioanalysis by LC-MS/MS. Results are expressed as ng/ml for plasma and ng/g for brain samples.

[6] = Pharmacokinetics in mice and rats (statements for both species); format: in vivo; details: for half-life: read-out: elimination half-life (converted)
Protocol: The PK evaluation of Compound P3.1 included Absorption, Distribution, Metabolism, and Excretion (ADME) studies, as well as assessment for CYP enzyme inhibition.
Blood samples were taken at 2 minutes (IV only), then 8, 15, 30 minutes, and 1, 2, 4, 8, and 24 hours after dosing and analyzed for key PK parameters. In the rats, brain samples were taken at 24 hours and analyzed for Compound P3.1. To evaluate the penetration of Compound P3.1 across the blood-brain barrier (BBB), 10 additional rats received IV Compound P3.1 3 mg/kg and plasma and brain concentrations of Compound P3.1 were determined from 2 animals at 15 minutes, 30 minutes and 1, 2, and 4 hours after dosing.

rat [7] = experiment: in vivo
Protocol: (§2) In a 14-day repeat-dose toxicity study in rats, Compound P3.1 was orally administered (gavage) at doses of 0 (vehicle), 50, 200, and 400 mg/kg/day.

in vivo = details: rat
Protocol: as §2

HbSS-Townes mice = experiment: Microvascular stasis and hematology in HbSS-Townes mice; format: in vivo
Protocol: The ability of Compound P3.1 to reduce vaso-occulsion was assessed in HbSS-Townes transgenic sickle mice after transient hypoxia and re-oxygenation. This study assessed the effects of repeated (10 days) oral dosing of Compound P3.1 and HU on microvascular stasis and other hematological markers of sickle cell disease, after transient hypoxia and re-oxygenation, in Townes transgenic sickle mice, a mouse model of sickle cell disease (Hba^tm1(HBA)Tow Hbb^tm2(HBG1,HBB*)Tow/Hbb^tm3(HBG1,HBB)Tow/J). HbSS-Townes mice were divided into groups of 3 mice and were then dosed orally via drinking water with Compound P3.1 at 10 mg/kg/day, Compound P3.1 at 30 mg/kg/day, HU (100 mg/kg/day), or a combination of Compound P3.1 and HU (at doses of 30 and 100 mg/kg/day, respectively) for 10 days. A final group received water containing 0.08% methylcellulose, the vehicle used to prepare the test items, and served as controls. On Day 7 of treatment, the mice were implanted with dorsal skin-fold chambers (DSFC), and on Day 10 of treatment, 20-23 flowing subcutaneous venules in the DSFC window were selected and mapped. After venule selection and mapping, mice were placed in a chamber and exposed to a hypoxic atmosphere (7% O2/93% N2) for 1 hour, after which they were returned to room air. All of the selected venules were re-examined after 1 and 4 hours of re-oxygenation in room air and the number of static (no flow) venules was counted and expressed as percent stasis. On completion of these measurements, blood was collected for clinical pathology with a focus on hematological measures associated with sickle cell disease.

[8] = Compound P3.1 30 mg/kg/day, HU 100 mg/kg/day, or both, 10 days

Structure (SMILES): C[C@@H]1CN(Cc2ncccn2)C[C@H]1c1cn2c(C3CCOCC3)ncc2c(=O)[nH]1 (single isomer, unassigned) [Compound P3.1]
- adhesion of low-binding donor cells ([1]; 1 uM Compound P3.1, whole blood of healthy volunteers): no effect
- adhesion of high-binding donor cells ([1]; 1 uM Compound P3.1 or 10 uM HU, whole blood of healthy volunteers): reduced the adhesion of 3 of 4 high-binding donors
- genotoxicity, chromosome aberration study [2]: negative
- stability: purity and appearance of solution [3]: No significant change to the purity of the compound or appearance of the solution
- induction of CYP1A2 (CYP1A2): no potential for induction
- genotoxicity, in vivo rat micronucleus study (rat [4]): negative
- efflux ratio (MDR1 (P-gp)): 180
- Plasma concentration after 30 minutes ([5]; 30 min): 30 min.: 1620 ng/mL
- Plasma concentration after 120 minutes ([5]; 120 min): 120 min.: 226 ng/mL
- Kp at 0.5 h ([5]; mouse, brain, sc, 30 min, read-out: Brain/Plasma ratio after 30 minutes): 0.04
- Kp at 2 h ([5]; mouse, brain/plasma, sc, 120 min, read-out: Brain/Plasma ratio after 120 minutes): 0.03
- plasma concentrations by 24 hours ([6]; 10 mg/kg oral, both species): below the lower limit of quantification (LLOQ)
- Tmax ([6]; CD1 (mouse), Sprague Dawley (rat), mouse, rat, plasma, 10 mg/kg, oral, mice and rats, read-out: time of maximum concentration (Tmax)): 0.5 to 1 h
- half-life ([6]; CD1 (mouse), Sprague Dawley (rat), mouse, rat, plasma, oral, intravenous, mice and rats): < 3 h
- half-life ([6]; CD1 (mouse), Sprague Dawley (rat), mouse, rat, plasma, other: oral and intravenous (both routes), mice and rats): ~3 h
- plasma concentration by 24 hours ([6]; IV, both species): below the LLOQ
- exposure relative to anticipated efficacious dose (rat [7]): > 10 fold
- exposure vs dose (rat [7]): increased proportionally with dose
- findings at highest dose (rat [7]; 400 mg/kg/day): reductions in body weight, weight gain, and food intake, and premature deaths
- NOAEL at 14 days (in vivo; female): 50 mg/kg/day and 50 mg/kg
- NOAEL at 14 days (in vivo; male): 200 mg/kg/day and 200 mg/kg
- AUC(0-t) (in vivo; 400 mg/kg/day, plasma exposure (AUC0-24)): > 354 µg·h/mL
- microvascular stasis (HbSS-Townes mice; 10 mg/kg/day, 10 days, 1-hour time point): reduced stasis statistically significantly
- microvascular stasis (HbSS-Townes mice; 10 mg/kg/day, 10 days, 4 hours): not at 4 hours
- microvascular stasis (HbSS-Townes mice; 30 mg/kg/day Compound P3.1 or 100 mg/kg HU, drinking water, 10 days, 1 and 4 hours post hypoxia): statistically significant reductions in stasis
- total WBC numbers (HbSS-Townes mice; Compound P3.1 30 mg/kg/day or HU 100 mg/kg/day, 10 days): reduce total WBC numbers
- vessel occlusion induced by transient hypoxia and re-oxygenation (HbSS-Townes mice; Compound P3.1 30 mg/kg/day, HU 100 mg/kg/day, or both): effectively reduced
- number of HbF positive red cells (HbSS-Townes mice; [8]): increase the number of HbF positive red cells
- proportion of sickled RBCs (HbSS-Townes mice; [8]): reduce the proportion of sickled RBCs
